Assay results taken from article PMC9481151, “Discovery of new symmetrical and asymmetrical nitrile-containing 1,4-dihydropyridine derivatives as dual kinases and P-glycoprotein inhibitors: synthesis, in vitro assays, and in silico studies” (Journal of Enzyme Inhibition and Medicinal Chemistry, 2022).
Values after ≈ are worked out from the molar mass of the structure shown. Where two headings read alike, the source gives them in different places.

What was measured:
[1] = system: Staphylococcus aureus; assay: Agar well diffusion method
[2] = system: P. aeruginosa; assay: MIC, two-fold microbroth dilution method; conditions: Pseudomonas aeruginosa, read-out: MIC (µg/mL) P. aeruginosa
[3] = system: Pseudomonas aeruginosa; assay: Agar well diffusion method
[4] = system: S. aureus; assay: MIC, two-fold microbroth dilution method; conditions: Staphylococcus aureus
[5] = system: B. subtilis; assay: MIC, two-fold microbroth dilution method; conditions: Bacillus subtilis
[6] = system: Bacillus subtilis; assay: Agar well diffusion method
[7] = system: Escherichia coli; assay: Agar well diffusion method
[8] = system: E. coli; assay: MIC, two-fold microbroth dilution method; conditions: Escherichia coli, read-out: MIC (µg/mL) E. coli
[9] = system: G positive and G negative bacteria; assay: Agar well diffusion method, summary; format: cell-based; conditions: reference drug, range over four strains
Source text: As a control, DMSO solvent was employed.

[10] = system: Candida albicans; assay: Agar well diffusion method
[11] = system: fungi (Candida albicans and Aspergillus flavus); assay: Agar well diffusion method, summary; conditions: range over strains
[12] = system: Aspergillus flavus; assay: Agar well diffusion method
[13] = system: C. albicans; assay: MIC, two-fold microbroth dilution method; conditions: Candida albicans, read-out: MIC (µg/mL) C. albicans
[14] = system: A. flavus; assay: MIC, two-fold microbroth dilution method; conditions: Aspergillus flavus, read-out: MIC (µg/mL) A. flavus
[15] = system: L-type calcium channels; conditions: cited from earlier work

SMILES: O=C(O)c1cn(C2CC2)c2cc(N3CCNCC3)c(F)cc2c1=O [Ciprofloxacin, reference compound]
- zone of inhibition at 1000 µg/mL ([1]; Staphylococcus aureus, 24 h, read-out: Diameter of inhibition zone, S. aureus): 24 mm
- % activity index, S. aureus ([1]; relative to ciprofloxacin): 100%
- MIC [2]: 1 µg/mL (≈ 3.02 µM)
- zone of inhibition at 1000 µg/mL ([3]; Pseudomonas aeruginosa, 24 h, read-out: Diameter of inhibition zone, P. aeruginosa): 23 mm
- % activity index, P. aeruginosa ([3]; relative to ciprofloxacin): 100%
- MIC ([4]; 24 h, read-out: MIC, S. aureus): 1 µg/mL (≈ 3.02 µM)
- MIC ([4]; read-out: MIC (µg/mL) S. aureus): 1 µg/mL (≈ 3.02 µM)
- MIC ([5]; 24 h, read-out: MIC, B. subtilis): 2 µg/mL (≈ 6.04 µM)
- MIC ([5]; read-out: MIC (µg/mL) B. subtilis): 2 µg/mL (≈ 6.04 µM)
- zone of inhibition at 1000 µg/mL ([6]; Bacillus subtilis, 24 h, read-out: Diameter of inhibition zone, B. subtilis): 23 mm
- % activity index, B. subtilis ([6]; relative to ciprofloxacin): 100%
- zone of inhibition at 1000 µg/mL ([7]; Escherichia coli, 24 h, read-out: Diameter of inhibition zone, E. coli): 26 mm
- % activity index, E. coli ([7]; relative to ciprofloxacin): 100%
- MIC [8]: 0.5 µg/mL (≈ 1.51 µM)
- DIZs against bacteria [9]: 23–26 mm

SMILES: Clc1ccccc1C(c1ccccc1)(c1ccccc1)n1ccnc1 [Clotrimazole, reference compound]
- zone of inhibition at 1000 µg/mL ([10]; Candida albicans, 24 h, read-out: Diameter of inhibition zone, C. albicans): 27 mm
- % activity index, C. albicans ([10]; relative to clotrimazole): 100%
- DIZs against fungi [11]: 25–27 mm
- zone of inhibition at 1000 µg/mL ([12]; Aspergillus flavus, 24 h, read-out: Diameter of inhibition zone, A. flavus): 25 mm
- % activity index, A. flavus ([12]; relative to clotrimazole): 100%
- MIC [13]: 2 µg/mL (≈ 5.8 µM)
- MIC [14]: 1 µg/mL (≈ 2.9 µM)

SMILES: COC(=O)C1=C(C)NC(C)=C(C(=O)OCCCN2CCC(c3ccccc3)(c3ccccc3)CC2)[C@@H]1c1cccc([N+](=O)[O-])c1 [Dexniguldipine, dexniguldipine]
- times less potent than (+)-niguldipine in its interaction with L-type calcium channels [15]: 40
